Laboratory results: PubChem BioAssay (NCI)
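Where inhibition never reached the appropriate level, the endpoint shown equals the highest concentration tested. Otherwise, values were interpolated linearly from a five-concentration, 48-hour dose response in 96-well plates. GI50 = concentration required for 50% inhibition of growth. At the TGI there is no net growth.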

How the values were obtained:
Test in all cases: NCI tumour cell line growth inhibition, 48 h
HOP-92 NSCLC = test system: HOP-92 NSCLC
NCI-H226 lung = test system: NCI-H226 lung
SK-MEL-5 melanoma = test system: SK-MEL-5 melanoma
SF-295 CNS = test system: SF-295 CNS
HOP-62 NSCLC = test system: HOP-62 NSCLC
SK-MEL-28 melanoma = test system: SK-MEL-28 melanoma
SNB-75 CNS = test system: SNB-75 CNS
HCT-15 colon = test system: HCT-15 colon
HT29 colon = test system: HT29 colon
SF-539 CNS = test system: SF-539 CNS
K-562 leukemia = test system: K-562 leukemia
HS 578T breast = test system: HS 578T breast
MDA-MB-231 breast = test system: MDA-MB-231 breast
CCRF-CEM leukemia = test system: CCRF-CEM leukemia
MALME-3M melanoma = test system: MALME-3M melanoma
M14 melanoma = test system: M14 melanoma
OVCAR-5 ovarian = test system: OVCAR-5 ovarian
MOLT-4 leukemia = test system: MOLT-4 leukemia
SN12C renal = test system: SN12C renal
ACHN renal = test system: ACHN renal
NCI-H460 lung = test system: NCI-H460 lung
UACC-62 melanoma = test system: UACC-62 melanoma
PC-3 prostate = test system: PC-3 prostate
COLO 205 colon = test system: COLO 205 colon
HCC-2998 colon = test system: HCC-2998 colon
A498 renal = test system: A498 renal
OVCAR-4 ovarian = test system: OVCAR-4 ovarian
BT-549 breast = test system: BT-549 breast
UO-31 renal = test system: UO-31 renal
IGROV1 ovarian = test system: IGROV1 ovarian
KM12 colon = test system: KM12 colon
MCF7 breast = test system: MCF7 breast
786-0 renal = test system: 786-0 renal
SK-MEL-2 melanoma = test system: SK-MEL-2 melanoma
SR leukemia = test system: SR leukemia
SF-268 CNS = test system: SF-268 CNS
SW-620 colon = test system: SW-620 colon
NCI-H23 lung = test system: NCI-H23 lung
NCI-H522 lung = test system: NCI-H522 lung
RPMI-8226 leukemia = test system: RPMI-8226 leukemia
CAKI-1 renal = test system: CAKI-1 renal
UACC-257 melanoma = test system: UACC-257 melanoma
T-47D breast = test system: T-47D breast
RXF 393 renal = test system: RXF 393 renal
OVCAR-8 ovarian = test system: OVCAR-8 ovarian
MDA-MB-435 = test system: MDA-MB-435
A549 NSCLC = test system: A549 NSCLC
TK-10 renal = test system: TK-10 renal
EKVX NSCLC = test system: EKVX NSCLC
SNB-19 CNS = test system: SNB-19 CNS
HCT-116 colon = test system: HCT-116 colon
SK-OV-3 ovarian = test system: SK-OV-3 ovarian
U251 CNS = test system: U251 CNS
NCI/ADR-RES ovarian = test system: NCI/ADR-RES ovarian
HL-60(TB) leukemia = test system: HL-60(TB) leukemia
DU-145 prostate = test system: DU-145 prostate

With `Fc1ccc(-c2cc3nc(C(Cl)Cl)nc(-c4cccs4)n3n2)cc1` the GI50 (HOP-92 NSCLC) was 537 nM, the TGI (HOP-92 NSCLC) was 2960 nM and the GI50 (NCI-H226 lung) was > 100000 nM. For the same compound, the TGI (NCI-H226 lung) was > 100000 nM, the GI50 (SK-MEL-5 melanoma) was > 100000 nM and the TGI (SK-MEL-5 melanoma) was > 100000 nM. For the same compound, the GI50 (SF-295 CNS) was 949 nM, the TGI (SF-295 CNS) was 4790 nM and the GI50 (HOP-62 NSCLC) was 454 nM. It also gave a TGI (HOP-62 NSCLC) of 3460 nM, a GI50 (SK-MEL-28 melanoma) of 1860 nM and a TGI (SK-MEL-28 melanoma) of 3590 nM. The GI50 (SNB-75 CNS) was 284 nM, the TGI (SNB-75 CNS) was 2810 nM and the GI50 (HCT-15 colon) was 1100 nM. For the same compound, the TGI (HCT-15 colon) was 3710 nM, the GI50 (HT29 colon) was 356 nM and the TGI (HT29 colon) was 2050 nM. For the same compound, the GI50 (SF-539 CNS) was 1050 nM, the TGI (SF-539 CNS) was 2890 nM and the GI50 (K-562 leukemia) was 2530 nM. For the same compound, the TGI (K-562 leukemia) was > 100000 nM, the GI50 (HS 578T breast) was 1950 nM and the TGI (HS 578T breast) was 7030 nM. The GI50 (MDA-MB-231 breast) was 505 nM, the TGI (MDA-MB-231 breast) was 3100 nM and the GI50 (CCRF-CEM leukemia) was 19600 nM. The TGI (CCRF-CEM leukemia) was > 100000 nM, the GI50 (MALME-3M melanoma) was 7500 nM and the TGI (MALME-3M melanoma) was > 100000 nM. For the same compound, the GI50 (M14 melanoma) was 4500 nM, the TGI (M14 melanoma) was > 100000 nM and the GI50 (OVCAR-5 ovarian) was 1750 nM. The TGI (OVCAR-5 ovarian) was 5310 nM, the GI50 (MOLT-4 leukemia) was 3560 nM and the TGI (MOLT-4 leukemia) was > 100000 nM. For the same compound, the GI50 (SN12C renal) was 36100 nM, the TGI (SN12C renal) was > 100000 nM and the GI50 (ACHN renal) was 301 nM. The TGI (ACHN renal) was 1210 nM, the GI50 (NCI-H460 lung) was 309 nM and the TGI (NCI-H460 lung) was 1190 nM. For the same compound, the GI50 (UACC-62 melanoma) was 2710 nM, the TGI (UACC-62 melanoma) was 15000 nM and the GI50 (PC-3 prostate) was 1190 nM. For the same compound, the TGI (PC-3 prostate) was 4670 nM, the GI50 (COLO 205 colon) was 805 nM and the TGI (COLO 205 colon) was 3120 nM. It also gave a GI50 (HCC-2998 colon) of 410 nM, a TGI (HCC-2998 colon) of 1590 nM and a GI50 (A498 renal) of 1020 nM. For the same compound, the TGI (A498 renal) was 2360 nM, the GI50 (OVCAR-4 ovarian) was 2390 nM and the TGI (OVCAR-4 ovarian) was 6220 nM. For the same compound, the GI50 (BT-549 breast) was > 100000 nM, the TGI (BT-549 breast) was > 100000 nM and the GI50 (UO-31 renal) was 1260 nM. The TGI (UO-31 renal) was 5500 nM, the GI50 (IGROV1 ovarian) was 3070 nM and the TGI (IGROV1 ovarian) was > 100000 nM. It also gave a GI50 (KM12 colon) of 2200 nM, a TGI (KM12 colon) of 17500 nM and a GI50 (MCF7 breast) of 369 nM. It also gave a TGI (MCF7 breast) of 4310 nM, a GI50 (786-0 renal) of 2310 nM and a TGI (786-0 renal) of 7330 nM. It also gave a GI50 (SK-MEL-2 melanoma) of 3100 nM, a TGI (SK-MEL-2 melanoma) of 9660 nM and a GI50 (SR leukemia) of 3700 nM. For the same compound, the TGI (SR leukemia) was > 100000 nM, the GI50 (SF-268 CNS) was 1610 nM and the TGI (SF-268 CNS) was 7990 nM. The GI50 (SW-620 colon) was 1180 nM, the TGI (SW-620 colon) was 8610 nM and the GI50 (NCI-H23 lung) was 1470 nM. For the same compound, the TGI (NCI-H23 lung) was 4000 nM, the GI50 (NCI-H522 lung) was > 100000 nM and the TGI (NCI-H522 lung) was > 100000 nM. For the same compound, the GI50 (RPMI-8226 leukemia) was 847 nM, the TGI (RPMI-8226 leukemia) was 5790 nM and the GI50 (CAKI-1 renal) was 1220 nM. It also gave a TGI (CAKI-1 renal) of 5040 nM, a GI50 (UACC-257 melanoma) of 3040 nM and a TGI (UACC-257 melanoma) of 9150 nM. The GI50 (T-47D breast) was 1600 nM, the TGI (T-47D breast) was 7240 nM and the GI50 (RXF 393 renal) was 403 nM. For the same compound, the TGI (RXF 393 renal) was 1710 nM, the GI50 (OVCAR-8 ovarian) was 1210 nM and the TGI (OVCAR-8 ovarian) was > 100000 nM. For the same compound, the GI50 (MDA-MB-435) was 1630 nM, the TGI (MDA-MB-435) was 3450 nM and the GI50 (A549 NSCLC) was 745 nM. For the same compound, the TGI (A549 NSCLC) was 4920 nM, the GI50 (TK-10 renal) was 3140 nM and the TGI (TK-10 renal) was 6880 nM. For the same compound, the GI50 (EKVX NSCLC) was 1120 nM, the TGI (EKVX NSCLC) was 4070 nM and the GI50 (SNB-19 CNS) was 664 nM. For the same compound, the TGI (SNB-19 CNS) was 4400 nM, the GI50 (HCT-116 colon) was 1530 nM and the TGI (HCT-116 colon) was > 100000 nM. The GI50 (SK-OV-3 ovarian) was 2210 nM, the TGI (SK-OV-3 ovarian) was 13800 nM and the GI50 (U251 CNS) was 319 nM. For the same compound, the TGI (U251 CNS) was 1980 nM, the GI50 (NCI/ADR-RES ovarian) was 1170 nM and the TGI (NCI/ADR-RES ovarian) was 5660 nM. For the same compound, the GI50 (HL-60(TB) leukemia) was 290 nM, the TGI (HL-60(TB) leukemia) was 2230 nM and the GI50 (DU-145 prostate) was 310 nM. It also gave a TGI (DU-145 prostate) of 888 nM.
